Experiment: excess molar enthalpy (molar enthalpy of mixing); xn = mol fraction of the nth substance listed
Conditions: Liquid

CCCCCO [pentan-1-ol] + COC(=O)OC
Conditions | excess molar enthalpy [kcal/mol]
298.15 K, 1000 kPa, x2 = 0.05 | 0.133
298.15 K, 1000 kPa, x2 = 0.101 | 0.246
298.15 K, 1000 kPa, x2 = 0.151 | 0.334
298.15 K, 1000 kPa, x2 = 0.2 | 0.405
298.15 K, 1000 kPa, x2 = 0.25 | 0.459
298.15 K, 1000 kPa, x2 = 0.3 | 0.498
298.15 K, 1000 kPa, x2 = 0.35 | 0.524
298.15 K, 1000 kPa, x2 = 0.4 | 0.542
298.15 K, 1000 kPa, x2 = 0.45 | 0.552
298.15 K, 1000 kPa, x2 = 0.5 | 0.552
298.15 K, 1000 kPa, x2 = 0.55 | 0.541
298.15 K, 1000 kPa, x2 = 0.601 | 0.52
298.15 K, 1000 kPa, x2 = 0.651 | 0.493
298.15 K, 1000 kPa, x2 = 0.701 | 0.454
298.15 K, 1000 kPa, x2 = 0.75 | 0.403
298.15 K, 1000 kPa, x2 = 0.851 | 0.273
298.15 K, 1000 kPa, x2 = 0.899 | 0.196
298.15 K, 1000 kPa, x2 = 0.949 | 0.104
313.15 K, 100 kPa, x2 = 0.05 | 0.138
313.15 K, 100 kPa, x2 = 0.101 | 0.259
313.15 K, 100 kPa, x2 = 0.151 | 0.354
313.15 K, 100 kPa, x2 = 0.2 | 0.432
313.15 K, 100 kPa, x2 = 0.25 | 0.494
313.15 K, 100 kPa, x2 = 0.301 | 0.541
313.15 K, 100 kPa, x2 = 0.351 | 0.571
313.15 K, 100 kPa, x2 = 0.402 | 0.593
313.15 K, 100 kPa, x2 = 0.451 | 0.602
313.15 K, 100 kPa, x2 = 0.501 | 0.601
313.15 K, 100 kPa, x2 = 0.549 | 0.59
313.15 K, 100 kPa, x2 = 0.601 | 0.567
313.15 K, 100 kPa, x2 = 0.648 | 0.538
313.15 K, 100 kPa, x2 = 0.749 | 0.446
313.15 K, 100 kPa, x2 = 0.799 | 0.376
313.15 K, 100 kPa, x2 = 0.851 | 0.304
313.15 K, 100 kPa, x2 = 0.899 | 0.207
313.15 K, 100 kPa, x2 = 0.949 | 0.103
313.15 K, 1000 kPa, x2 = 0.05 | 0.134
313.15 K, 1000 kPa, x2 = 0.101 | 0.255
313.15 K, 1000 kPa, x2 = 0.151 | 0.352
313.15 K, 1000 kPa, x2 = 0.2 | 0.427
313.15 K, 1000 kPa, x2 = 0.25 | 0.49
313.15 K, 1000 kPa, x2 = 0.301 | 0.537
313.15 K, 1000 kPa, x2 = 0.351 | 0.569
313.15 K, 1000 kPa, x2 = 0.401 | 0.591
313.15 K, 1000 kPa, x2 = 0.45 | 0.601
313.15 K, 1000 kPa, x2 = 0.501 | 0.601
313.15 K, 1000 kPa, x2 = 0.549 | 0.59
313.15 K, 1000 kPa, x2 = 0.601 | 0.566
313.15 K, 1000 kPa, x2 = 0.652 | 0.536
313.15 K, 1000 kPa, x2 = 0.749 | 0.455
313.15 K, 1000 kPa, x2 = 0.799 | 0.387
313.15 K, 1000 kPa, x2 = 0.851 | 0.308
313.15 K, 1000 kPa, x2 = 0.899 | 0.225
313.15 K, 1000 kPa, x2 = 0.949 | 0.109
313.15 K, 10000 kPa, x2 = 0.05 | 0.136
313.15 K, 10000 kPa, x2 = 0.101 | 0.255
313.15 K, 10000 kPa, x2 = 0.151 | 0.352
313.15 K, 10000 kPa, x2 = 0.199 | 0.427
313.15 K, 10000 kPa, x2 = 0.249 | 0.488
313.15 K, 10000 kPa, x2 = 0.3 | 0.537
313.15 K, 10000 kPa, x2 = 0.349 | 0.569
313.15 K, 10000 kPa, x2 = 0.4 | 0.589
313.15 K, 10000 kPa, x2 = 0.449 | 0.599
313.15 K, 10000 kPa, x2 = 0.499 | 0.6
313.15 K, 10000 kPa, x2 = 0.551 | 0.588
313.15 K, 10000 kPa, x2 = 0.6 | 0.567
313.15 K, 10000 kPa, x2 = 0.65 | 0.535
313.15 K, 10000 kPa, x2 = 0.85 | 0.309
313.15 K, 10000 kPa, x2 = 0.899 | 0.222
313.15 K, 10000 kPa, x2 = 0.949 | 0.106
328.15 K, 1000 kPa, x2 = 0.05 | 0.137
328.15 K, 1000 kPa, x2 = 0.101 | 0.258
328.15 K, 1000 kPa, x2 = 0.151 | 0.356
328.15 K, 1000 kPa, x2 = 0.202 | 0.441
328.15 K, 1000 kPa, x2 = 0.252 | 0.506
328.15 K, 1000 kPa, x2 = 0.3 | 0.555
328.15 K, 1000 kPa, x2 = 0.35 | 0.592
328.15 K, 1000 kPa, x2 = 0.4 | 0.616
328.15 K, 1000 kPa, x2 = 0.45 | 0.629
328.15 K, 1000 kPa, x2 = 0.5 | 0.631
328.15 K, 1000 kPa, x2 = 0.55 | 0.622
328.15 K, 1000 kPa, x2 = 0.601 | 0.6
328.15 K, 1000 kPa, x2 = 0.651 | 0.568
328.15 K, 1000 kPa, x2 = 0.701 | 0.525
328.15 K, 1000 kPa, x2 = 0.75 | 0.471
328.15 K, 1000 kPa, x2 = 0.851 | 0.327
328.15 K, 1000 kPa, x2 = 0.899 | 0.237
328.15 K, 1000 kPa, x2 = 0.949 | 0.122

Source: the NIST ThermoML archive (doi:10.1016/j.jct.2005.07.011)
